In PubChem BioAssay AID330 (DTP/NCI, 2004):
Where “and” joins values, the source holds several entries; their conditions need not be identical. Equal entries are not always repeated. Inconclusive results and toxic doses are left out.

Tested on: P388 leukemia ip, CD2F1 mice, survival T/C
Test: NCI In Vivo Anticancer Drug Screen. Data for tumor model P388 Leukemia (intraperitoneal) in CD2F1 (CDF1) mice
Settings: endpoint: median survival time, higher = longer survival
Method in brief: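 Mice carrying the transplanted tumor received test compound or vehicle. Survival was recorded in each group, and the value is the treated-group measurement divided by that of the vehicle-treated control group.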

[1] = dose: 120.0 mg/kg/injection, schedule: Q01DX005 (ip), vehicle: saline with Tween-80
[2] = dose: 240.0 mg/kg/injection, schedule: Q01DX005 (ip), vehicle: saline with Tween-80
[3] = dose: 60.0 mg/kg/injection, schedule: Q01DX005 (ip), vehicle: saline with Tween-80
[4] = dose: 25.0 mg/kg/injection, schedule: Q01DX009 (ip), vehicle: saline with Tween-80
[5] = dose: 50.0 mg/kg/injection, schedule: Q01DX009 (ip), vehicle: saline with Tween-80
[6] = dose: 100.0 mg/kg/injection, schedule: Q01DX009 (ip), vehicle: saline with Tween-80
[7] = dose: 200.0 mg/kg/injection, schedule: Q01DX009 (ip), vehicle: saline with Tween-80
[8] = dose: 50.0 mg/kg/injection, schedule: Q01DX005 (ip), vehicle: Klucel (hydroxypropylcellulose) (HPC)
[9] = dose: 100.0 mg/kg/injection, schedule: Q01DX005 (ip), vehicle: Klucel (hydroxypropylcellulose) (HPC)
[10] = dose: 200.0 mg/kg/injection, schedule: Q01DX005 (ip), vehicle: Klucel (hydroxypropylcellulose) (HPC)
[11] = dose: 50.0 mg/kg/injection, schedule: Q01DX005 (ip), vehicle: distilled water + Tween-80 + alcohol
[12] = dose: 100.0 mg/kg/injection, schedule: Q01DX005 (ip), vehicle: distilled water + Tween-80 + alcohol
[13] = dose: 50.0 mg/kg/injection, schedule: Q01DX005 (ip), vehicle: saline with Tween-80
[14] = dose: 100.0 mg/kg/injection, schedule: Q01DX005 (ip), vehicle: saline with Tween-80
[15] = dose: 200.0 mg/kg/injection, schedule: Q01DX005 (ip), vehicle: saline with Tween-80

## O=C(Nc1cccc2c(NC(=O)N3CCCCC3)cccc12)N1CCCCC1
dose: 15.0 mg/kg/injection, schedule: Q01DX005 (ip), vehicle: saline with Tween-80
  T/C: 94 % of control
dose: 30.0 mg/kg/injection, schedule: Q01DX005 (ip), vehicle: saline with Tween-80
  T/C: 93 % of control
[1]
  T/C: 86 % of control
[2]
  T/C: 100 % of control

## N#C[S][Hg][c]1ccccc1
[3]
  T/C: 106 % of control
[1]
  T/C: 98 % of control

## C=C(C)C(=O)OC1c2c(C)coc2C(=O)C2CCCC(C)C21C (stereo unspecified)
[4]
  T/C: 101 % of control
[5]
  T/C: 98 % of control
[6]
  T/C: 102 % of control
[7]
  T/C: 96 % of control

## O.O.O=S(=O)(O)C(F)(F)F.[NH2-].[NH2-].[NH2-].[NH2-].[Ru+3]
dose: 12.5 mg/kg/injection, schedule: Q04DX003 (ip), vehicle: saline
  T/C: 115 % of control
dose: 25.0 mg/kg/injection, schedule: Q04DX003 (ip), vehicle: saline
  T/C: 124 % of control
dose: 100.0 mg/kg/injection, schedule: Q04DX003 (ip), vehicle: saline
  T/C: 157 % of control

## COc1cc2c(cc1OC)C(CC1CCN3CCCCC3C1)NCC2 (stereo unspecified)
dose: 87.5 mg/kg/injection, schedule: Q04DX003 (ip), vehicle: saline
  T/C: 103 % of control

## C1=Cc2cc(CN3CCOCC3)ccc2Nc2ccc(CN3CCOCC3)cc21
dose: 60.0 mg/kg/injection, schedule: Q01DX005 (ip), vehicle: Klucel (hydroxypropylcellulose) (HPC)
  T/C: 96 % of control
dose: 120.0 mg/kg/injection, schedule: Q01DX005 (ip), vehicle: Klucel (hydroxypropylcellulose) (HPC)
  T/C: 94 % of control
dose: 240.0 mg/kg/injection, schedule: Q01DX005 (ip), vehicle: Klucel (hydroxypropylcellulose) (HPC)
  T/C: 99 % of control

## CCOC(=O)NN
dose: 12.5 mg/kg/injection, schedule: Q01DX009 (ip), vehicle: saline
  T/C: 111 % of control
dose: 25.0 mg/kg/injection, schedule: Q01DX009 (ip), vehicle: saline
  T/C: 92 % of control

## CCOC(=O)c1c(C)cc2ccccn12
[3]
  T/C: 103 % of control
[1]
  T/C: 103 % of control
[2]
  T/C: 105 % of control

## CN(C)c1ccc(/C=C/C(=O)c2nc3ccccc3[nH]2)cc1
dose: 100.0 mg/kg/injection, schedule: Q04DX003 (ip), vehicle: Klucel (hydroxypropylcellulose) (HPC)
  T/C: 100 % of control
dose: 200.0 mg/kg/injection, schedule: Q04DX003 (ip), vehicle: Klucel (hydroxypropylcellulose) (HPC)
  T/C: 100 % of control
dose: 400.0 mg/kg/injection, schedule: Q04DX003 (ip), vehicle: Klucel (hydroxypropylcellulose) (HPC)
  T/C: 86 % of control

## BrC1(Br)C2CCCCCCC21 (stereo unspecified)
[5]
  T/C: 100 % of control
dose: 50.0 mg/kg/injection, schedule: Q04DX003 (ip), vehicle: saline with Tween-80
  T/C: 100 % of control
[6]
  T/C: 100 % of control
dose: 100.0 mg/kg/injection, schedule: Q04DX003 (ip), vehicle: saline with Tween-80
  T/C: 104 % of control
[7]
  T/C: 100 % of control
dose: 200.0 mg/kg/injection, schedule: Q04DX003 (ip), vehicle: saline with Tween-80
  T/C: 104 % of control

## Cc1cc2nnn(C3OC(CO)C(O)C3O)c2cc1C (stereo unspecified)
[8]
  T/C: 105 % of control
[9]
  T/C: 107 % of control
[10]
  T/C: 104 % of control

## CC(C)(C)B1N(c2ccccc2)N=NN1C(C)(C)C
dose: 60.0 mg/kg/injection, schedule: Q01DX005 (ip), vehicle: saline
  T/C: 100 % of control
dose: 120.0 mg/kg/injection, schedule: Q01DX005 (ip), vehicle: saline
  T/C: 99 % of control and 88 % of control
dose: 240.0 mg/kg/injection, schedule: Q01DX005 (ip), vehicle: saline
  T/C: 96 % of control and 98 % of control

## COC(=O)CCn1nc(-c2ccccc2)c(-c2ccccc2)c(S(C)(=O)=O)c1=O
dose: 25.0 mg/kg/injection, schedule: Q04DX002 (ip), vehicle: distilled water + Tween-80
  T/C: 95 % of control
dose: 50.0 mg/kg/injection, schedule: Q04DX002 (ip), vehicle: distilled water + Tween-80
  T/C: 92 % of control
dose: 200.0 mg/kg/injection, schedule: Q04DX002 (ip), vehicle: distilled water + Tween-80
  T/C: 90 % of control

## COC1c2ccccc2C=CN1C#N (stereo unspecified)
[11]
  T/C: 105 % of control
[12]
  T/C: 107 % of control

## O=c1[nH]nc(/C=C/C=C/c2ccccc2)c(=O)[nH]1
dose: 100.0 mg/kg/injection, schedule: Q01DX001 (ip), vehicle: saline
  T/C: 97 % of control
dose: 200.0 mg/kg/injection, schedule: Q01DX001 (ip), vehicle: saline
  T/C: 101 % of control
dose: 400.0 mg/kg/injection, schedule: Q01DX001 (ip), vehicle: saline
  T/C: 90 % of control

## CCCCCC(CN(C)C)C(=O)/C=C/c1ccc(C)cc1 (stereo unspecified)
dose: 12.5 mg/kg/injection, schedule: Q01DX005 (ip), vehicle: saline with Tween-80
  T/C: 98 % of control
dose: 25.0 mg/kg/injection, schedule: Q01DX005 (ip), vehicle: saline with Tween-80
  T/C: 100 % of control
[13]
  T/C: 106 % of control and 97 % of control
[14]
  T/C: 98 % of control

## CC(C)(C)OC(=O)NC(CCCCNC(=O)OCc1ccccc1)C(=O)O (stereo unspecified)
[11]
  T/C: 92 % of control
dose: 50.0 mg/kg/injection, schedule: Q01DX005 (ip), vehicle: saline
  T/C: 106 % of control
[12]
  T/C: 92 % of control
dose: 100.0 mg/kg/injection, schedule: Q01DX005 (ip), vehicle: saline
  T/C: 100 % of control
dose: 200.0 mg/kg/injection, schedule: Q01DX005 (ip), vehicle: saline
  T/C: 103 % of control

## CCC(=O)[C@]1(O)Cc2c(O)c3c(c(O)c2[C@@H](OC2CC(N)C(O)C(C)O2)C1)C(=O)c1c(OC)cccc1C3=O (stereo partly specified)
dose: 3.13 mg/kg/injection, schedule: Q04DX003 (ip), vehicle: water
  T/C: 102 % of control
dose: 6.25 mg/kg/injection, schedule: Q04DX003 (ip), vehicle: water
  T/C: 112 % of control
dose: 12.5 mg/kg/injection, schedule: Q04DX003 (ip), vehicle: water
  T/C: 119 % of control
dose: 25.0 mg/kg/injection, schedule: Q04DX003 (ip), vehicle: water
  T/C: 119 % of control
dose: 50.0 mg/kg/injection, schedule: Q04DX003 (ip), vehicle: water
  T/C: 110 % of control

## Oc1ccc(N=Nc2ccc3c4c(cccc24)-c2ccccc2-3)c2cccnc12
dose: 50.0 mg/kg/injection, schedule: Q01DX009 (ip), vehicle: Klucel (hydroxypropylcellulose) (HPC)
  T/C: 99 % of control
dose: 100.0 mg/kg/injection, schedule: Q01DX009 (ip), vehicle: Klucel (hydroxypropylcellulose) (HPC)
  T/C: 102 % of control
dose: 200.0 mg/kg/injection, schedule: Q01DX009 (ip), vehicle: Klucel (hydroxypropylcellulose) (HPC)
  T/C: 114 % of control

## O=C1CN(c2ccc(Cl)cc2)C(=O)CN1/N=C/c1ccc(O)c(O)c1
[13]
  T/C: 99 % of control
[14]
  T/C: 93 % of control

## N=Nc1c(OC(=O)Nc2ccccc2)[nH]c2c(Cl)cc(Cl)cc12
[13]
  T/C: 100 % of control
[14]
  T/C: 100 % of control
[15]
  T/C: 98 % of control

## CCn1c2ccc([N+](=O)[O-])cc2c2c([N+](=O)[O-])c(NC(C)=O)ccc21
[13]
  T/C: 93 % of control
[14]
  T/C: 95 % of control
[15]
  T/C: 92 % of control

## CNC(=O)OCc1snc(-c2ccccc2)c1COC(=O)NC
dose: 12.5 mg/kg/injection, schedule: Q01DX005 (ip), vehicle: distilled water + Tween-80
  T/C: 99 % of control
dose: 25.0 mg/kg/injection, schedule: Q01DX005 (ip), vehicle: distilled water + Tween-80
  T/C: 101 % of control
dose: 50.0 mg/kg/injection, schedule: Q01DX005 (ip), vehicle: distilled water + Tween-80
  T/C: 99 % of control
dose: 100.0 mg/kg/injection, schedule: Q01DX005 (ip), vehicle: distilled water + Tween-80
  T/C: 96 % of control
dose: 200.0 mg/kg/injection, schedule: Q01DX005 (ip), vehicle: distilled water + Tween-80
  T/C: 108 % of control

## CN(Cc1ccccc1)C(c1ccccc1)C1(c2ccccc2)Cc2ccccc2C(=O)O1 (stereo unspecified)
[8]
  T/C: 87 % of control
[9]
  T/C: 87 % of control
[10]
  T/C: 87 % of control

## CC(=O)n1cc(C2CC(=O)OC3=C2CC(=O)C(C)(C)C3)c2ccccc21 (stereo unspecified)
[4]
  T/C: 100 % of control
[5]
  T/C: 103 % of control
[6]
  T/C: 110 % of control
[7]
  T/C: 113 % of control
dose: 400.0 mg/kg/injection, schedule: Q01DX009 (ip), vehicle: saline with Tween-80
  T/C: 119 % of control

## CCCC(NC(=O)c1ccccc1)C(=O)O (stereo unspecified)
[5]
  T/C: 100 % of control
[6]
  T/C: 99 % of control
[7]
  T/C: 99 % of control
